Patent publication US9751853B2, “Solid forms of 3-(5-amino-2-methyl-4-oxo-4H-quinazolin-3-yl)-piperidine-2,6-dione, and their pharmaceutical compositions and uses” (Celgene Corporation, priority 2011, dated 2017)
“Also recorded” adds a separate entry of the source. Like-named read-outs stand apart in the source and are kept apart here.

Columns and labels:
[1] = Cooling recrystallization, solid form by XRPD; type: physicochemical; settings: no antisolvent
Protocol: Cooling Recrystallization: The selected solvents (THF/water, MeCN/water, MeOH/0.1N HCl, and EtOH/0.1N HCl) were saturated with Compound A hydrochloride at about 50-70° C. Once the solids were completely dissolved, the solution was rapidly cooled by placing into a refrigerator (about 0-5° C.). Solids were isolated after 1 to 3 days.
(§1) X-ray Powder Diffraction (XRPD): XRPD analysis was conducted on a Thermo ARL X'TRA™ X-ray powder diffractometer using Cu Kα radiation at 1.54 Å. The instrument was equipped with a fine focus X-ray tube. The voltage and amperage of X-ray generator were set at 45 kV and 40 mA, respectively. The divergence slices were set at 4 mm and 2 mm and the measuring slices were set at 0.5 mm and 0.2 mm. Diffracted radiation was detected by a peltier-cooled Si(Li) solid-state detector. A theta-two theta continuous scan at 2.40°/min (0.5 sec/0.02° step) from 1.5°2θ to 40°2θ was used. A sintered alumina standard was used to check the peak position. In general, positions of XRPD peaks are expected to individually vary on a measurement-by-measurement basis by about +0.2°2θ. In general, as understood in the art, two XRPD patterns match one another if the characteristic peaks of the first pattern are located at approximately the same positions as the characteristic peaks of the second pattern. As understood in the art, determining whether two XRPD patterns match or whether individual peaks in two XRPD patterns match may require consideration of individual variables and parameters such as, but not limited to, preferred orientation, phase impurities, degree of crystallinity, particle size, variation in diffractometer instrument setup, variation in XRPD data collection parameters, and/or variation in XRPD data processing, among others. The determination of whether two patterns match may be performed by eye and/or by computer analysis.

Solubility by HPLC = type: physicochemical; settings: thermodynamic from solid, room temperature
Protocol: Solubility by HPLC: Solubility of Form A in selected aqueous and organic solvents was determined by mixing solid with solvents at room temperature. The samples were filtered after 24 hr of agitation and quantified by an HPLC method, except for DMSO, for which the solubility was measured after 1 hr of agitation.

[2] = Solvent/anti-solvent recrystallization, solid form by XRPD; type: physicochemical; settings: MeCN/H2O, ratio 1:5
Protocol: Solvent/Anti-Solvent Recrystallization: The selected solvent (MeCN/water) was saturated with Compound A hydrochloride at room temperature. Once the solids were completely dissolved, an anti-solvent (acetone or IPA) was added into the solution. The mixture was stirred at room temperature overnight. If no precipitation occurred, the vial was further cooled by placing into a refrigerator (about 0-5° C.). The solids resulting from the recrystallization were filtered and air-dried.
X-ray Powder Diffraction (XRPD): XRPD analysis was conducted on a Thermo ARL X'TRA™ X-ray powder diffractometer using Cu Kα radiation at 1.54 Å. The instrument was equipped with a fine focus X-ray tube. The voltage and amperage of X-ray generator were set at 45 kV and 40 mA, respectively. The divergence slices were set at 4 mm and 2 mm and the measuring slices were set at 0.5 mm and 0.2 mm. Diffracted radiation was detected by a peltier-cooled Si(Li) solid-state detector. A theta-two theta continuous scan at 2.40°/min (0.5 sec/0.02° step) from 1.5°2θ to 40°2θ was used. A sintered alumina standard was used to check the peak position. In general, positions of XRPD peaks are expected to individually vary on a measurement-by-measurement basis by about +0.2°2θ. […]

[3] = Chemical stability upon storage
[4] = Evaporation experiments, solid form by XRPD; type: physicochemical
Protocol: Equilibration/Slurry and Evaporation: Equilibration and evaporation experiments were carried out by adding an excess of Compound A hydrochloride to about 2 mL of a test solvent. The resulting mixture was agitated for at least 24 hrs at about 25° C. or about 50° C. Upon reaching equilibrium, the saturated solution was removed and allowed to evaporate slowly in an open vial under nitrogen at about 25° C. and about 50° C., respectively. The solids resulting from the equilibration were filtered and dried in the air.
as §1

[5] = Grinding studies, solid form by XRPD; type: physicochemical
Protocol: Grinding Studies: Grinding experiments were performed using a Wig-L-Bug shaker. About 50 mg of Compound A hydrochloride was added to a polystyrene tube (1″×½″) with a Plexi bead (⅜″). The vial was capped and placed on the shaker for about 50 s. For wet grinding, drops of water were added to the vial and a wet paste was formed prior to placing on the shaker.
as §1

[6] = Approximate solubility in test solvents (visual/gravimetric); type: physicochemical; settings: thermodynamic from solid
Protocol: Solubility: A weighed sample of Compound A hydrochloride (about 50 mg) was treated with a known volume of a test solvent. The solvents used were either reagent or HPLC grade. The resulting mixture was agitated for at least 24 hours at about 25° C. If all of the solids appeared to be dissolved by visual inspection, the estimated solubilities were calculated based on the total volume of solvent used to give a complete solution. The actual solubilities may be greater than those calculated due to the use of large amount of solvent or to a slow rate of dissolution. If solids were present, the solubility was measured gravimetrically. A known volume of filtrate was evaporated to dryness and the weight of the residue was measured.

## Cc1nc2cccc(N)c2c(=O)n1C1CCC(=O)NC1=O.Cl (centres unmarked) [Form A1, 3-(5-amino-2-methyl-4-oxo-4H-quinazolin-3-yl)-piperidine-2,6-dione hydrochloride]
[1]; EtOH/0.1N HCl
  XRPD Result after recrystallization: Form A1
[1]; MeCN/H2O, hydrochloride
  XRPD Result after recrystallization: Form A1 + Form A
[1]; MeOH/0.1N HCl
  XRPD Result after recrystallization: Form A1
[1]; THF/H2O, hydrochloride
  XRPD Result after recrystallization: Complete salt dissociation; also recorded: Form A
Solubility by HPLC; aqueous buffer, Acetate buffer (pH 4.0)
  solubility at 24 h: 310 µg/mL
Solubility by HPLC; aqueous buffer, Phosphate buffer (pH 6.8)
  solubility at 24 h: 30 µg/mL
Solubility by HPLC; organic solvent or mixture, Acetone
  solubility at 24 h: 2550 µg/mL
Solubility by HPLC; organic solvent or mixture, Acetonitrile (AcCN)
  solubility at 24 h: 20 µg/mL
Solubility by HPLC; organic solvent or mixture, Dimethyl Sulfoxide (DMSO), 1 hr of agitation
  solubility at 1 h: 21900 µg/mL
Solubility by HPLC; organic solvent or mixture, Ethyl acetate (EtOAc)
  solubility at 24 h: < 1 µg/mL
Solubility by HPLC; organic solvent or mixture, Heptane
  solubility at 24 h: < 1 µg/mL
Solubility by HPLC; organic solvent or mixture, Isopropanol (iPrOH)
  solubility at 24 h: 20 µg/mL
Solubility by HPLC; organic solvent or mixture, Methanol (MeOH)
  solubility at 24 h: 270 µg/mL
Solubility by HPLC; organic solvent or mixture, Tetrahydrofuran (THF)
  solubility at 24 h: < 5 µg/mL
Solubility by HPLC; organic solvent or mixture, Toluene
  solubility at 24 h: < 5 µg/mL
Solubility by HPLC; saline or isotonic, 0.9% NaCl
  solubility at 24 h: 1900 µg/mL
Solubility by HPLC; simulated gastric fluid, 0.1N HCl
  solubility at 24 h: 5340 µg/mL
Solubility by HPLC; Water
  solubility at 24 h: 1710 µg/mL
[2]; antisolvent Acetone
  XRPD Result after recrystallization: Form A1
[2]; antisolvent IPA, hydrochloride
  XRPD Result after recrystallization: partial salt dissociation; also recorded: Form Al + Form A
[3]; 40° C. and 75% relative humidity (RH)
  chemical stability upon storage: chemically stable
[3]; 40° C. under a nitrogen atmosphere
  chemical stability upon storage: chemically stable
[3]; 40° C. under vacuum
  chemical stability upon storage: chemically stable
[3]; 60° C. in a closed container
  chemical stability upon storage: chemically stable
[3]; room temperature, exposed to air and light, for 6 weeks
  chemical stability upon storage: chemically stable
[4]; evaporation at 50° C., Acetonitrile/Water (1:1)
  XRPD Result after evaporation: Form A1
[4]; evaporation at 50° C., Ethanol/Water (1:1)
  XRPD Result after evaporation: Form A1
[4]; evaporation at 50° C., Methanol
  XRPD Result after evaporation: Form A1
[4]; evaporation at 50° C., Tetrahydrofuran/Water (1:1), hydrochloride
  XRPD Result after evaporation: Amorphous
[4]; evaporation at 50° C., Water
  XRPD Result after evaporation: Form A1
[4]; evaporation at room temperature, Acetonitrile/Water (1:1)
  XRPD Result after evaporation: Form A1
[4]; evaporation at room temperature, Ethanol/Water (1:1)
  XRPD Result after evaporation: Form A1
[4]; evaporation at room temperature, Methanol, hydrochloride
  XRPD Result after evaporation: Partial or complete salt dissociation; also recorded: Form A + Form A1
[4]; evaporation at room temperature, THF
  XRPD Result after evaporation: Partial or complete salt dissociation
[4]; evaporation at room temperature, Tetrahydrofuran/Water (1:1), hydrochloride
  XRPD Result after evaporation: Partial or complete salt dissociation; also recorded: Form A + Form A1
[4]; evaporation at room temperature, Water
  XRPD Result after evaporation: Form A1
[5]; Dry grinding
  XRPD Result after grinding: unchanged
[5]; Wet grinding (paste)
  XRPD Result after grinding: unchanged
[6]; aqueous with cosolvent or surfactant or cyclodextrin, EtOH/water (1:1), about 25° C., read-out: approximate solubility
  solubility: 3000 to 10000 µg/mL
[6]; aqueous with cosolvent or surfactant or cyclodextrin, MeCN/water (1:1), about 25° C., read-out: approximate solubility
  solubility: > 25000 µg/mL
[6]; aqueous with cosolvent or surfactant or cyclodextrin, THF/water (1:1), about 25° C., read-out: approximate solubility
  solubility: > 25000 µg/mL
[6]; aqueous with cosolvent or surfactant or cyclodextrin, acetonitrile:water, solvent system for scaleup, read-out: solubility
  solubility: > 50000 µg/mL
[6]; organic solvent or mixture, CH2Cl2, about 25° C., read-out: approximate solubility
  solubility: 3000 to 10000 µg/mL
[6]; organic solvent or mixture, MeOH, about 25° C., read-out: approximate solubility
  solubility: 3000 to 10000 µg/mL
[6]; organic solvent or mixture, THF, about 25° C., read-out: approximate solubility
  solubility: 3000 to 10000 µg/mL
[6]; organic solvent or mixture, other organic solvents tested, about 25° C., read-out: approximate solubility
  solubility: < 3000 µg/mL
[6]; water, about 25° C., read-out: approximate solubility
  solubility: 3000 to 10000 µg/mL
